PMC2994747, “Molecular Characterization of c-Abl/c-Src Kinase Inhibitors Targeted against Murine Tumour Progenitor Cells that Express Stem Cell Markers” (PLoS ONE, 2010)
Where two headings read alike, the source gives them in different places.

What was measured:
A2C12 = assay: MTS cell viability assay; type: cell-based, mouse
Procedure, shortened: (§1)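 Viability read by MTS tetrazolium conversion (1 h, absorbance 490 nm) after 24 h or 96 h exposure to compound versus 0.2% DMSO vehicle, triplicate wells. Human (A549, CaCo2, HepG2) and murine NSCLC monolayers cultured in DMEM, 10% FCS, 37°C.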

BetaD5 [1] = assay: MTS cell viability assay; type: cell-based, mouse
Procedure, shortened: as §1

GammaA3 [2] = assay: MTS cell viability assay; type: cell-based, mouse
Procedure, shortened: as §1

GammaD12 [3] = assay: MTS cell viability assay; type: cell-based, mouse
Procedure, shortened: as §1

A549 = assay: MTS cell viability assay; type: cell-based, human
Procedure, shortened: as §1

CaCo2 = assay: MTS cell viability assay; type: cell-based, human
Procedure, shortened: as §1

HepG2 = assay: MTS cell viability assay; type: cell-based, human
Procedure, shortened: as §1

BetaD5 [4] = assay: Cell cycle analysis by flow cytometry; type: cell-based, mouse; details: IC50 concentration, 96 h
Procedure, shortened: (§2)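 Cells were harvested with trypsin, washed in PBS and resuspended in kit buffer, then centrifuged and taken up in solution A for 10 min at room temperature. Solution B was added, then solution C, with incubation at 4°C in the dark before flow cytometric DNA-content analysis.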

GammaA3 [5] = assay: Cell cycle analysis by flow cytometry; type: cell-based, mouse; details: IC50 concentration, 96 h
Procedure, shortened: as §2

GammaD12 [6] = assay: Cell cycle analysis by flow cytometry; type: cell-based, mouse; details: IC50 concentration, 96 h
Procedure, shortened: as §2

[7] = tested on: human and murine cell lines; assay: Western blot, statements over human and murine cell lines; type: cell-based; details: IC50 concentration, 96 h
Protocol: For the Western Blot analysis, cells were rinsed and lysed as previously described. An amount of 25 µg protein was used for SDS-PAGE. Antibodies for c-Abl (sc-131), Actin (sc-1616), Cdc2-p34 (sc-8395), EPS15 (sc-1840), FAK (sc-558), c-Fos (sc-52), p38 (sc-7972), p53 (sc-6243) and STAT5 (sc-835x) were obtained from Santa Cruz (Santa Cruz Biotechnology, Heidelberg, Germany), while c-Src (2109) and phospho-Src Y416 (2101) were purchased from Cell Signaling (Cell Signaling Technology, Frankfurt a. M., Germany). The EGFR (06-847), phospho-EGFR Y992 (07-821) and phospho-EGFR Y1045 (04-284) stem from Upstate (Upstate, Schwalbach, Germany) and the hnRNP-K (A300-676A) from Bethyl Labs (Bethyl Laboratories, Montgomery, Texas, USA). Finally p73 (IMG-246) was supplied by Imgenex (Imgenex, Hamburg, Germany). Depending on the primary antibody the secondary antibodies were either horseradish peroxidase-conjugated anti-mouse (AP 160P), anti-rabbit (AP 132P) or anti-sheep (AP 147P) (Chemicon, Schwalbach, Germany).
Semi-quantitative analysis were carried out with Kodak 1D Image Analysis Software in reference to the vehicle treated control cells (see supplementary table S7).

c-Src = target: T1, c-Src (Homo sapiens, UniProt P12931); assay: Src filter-binding kinase assay (Src Assay Kit); type: biochemical
T1 construct: His tag; purchased Upstate (Lake Placid, NY, USA)
T1 sequence (P12931 whole entry): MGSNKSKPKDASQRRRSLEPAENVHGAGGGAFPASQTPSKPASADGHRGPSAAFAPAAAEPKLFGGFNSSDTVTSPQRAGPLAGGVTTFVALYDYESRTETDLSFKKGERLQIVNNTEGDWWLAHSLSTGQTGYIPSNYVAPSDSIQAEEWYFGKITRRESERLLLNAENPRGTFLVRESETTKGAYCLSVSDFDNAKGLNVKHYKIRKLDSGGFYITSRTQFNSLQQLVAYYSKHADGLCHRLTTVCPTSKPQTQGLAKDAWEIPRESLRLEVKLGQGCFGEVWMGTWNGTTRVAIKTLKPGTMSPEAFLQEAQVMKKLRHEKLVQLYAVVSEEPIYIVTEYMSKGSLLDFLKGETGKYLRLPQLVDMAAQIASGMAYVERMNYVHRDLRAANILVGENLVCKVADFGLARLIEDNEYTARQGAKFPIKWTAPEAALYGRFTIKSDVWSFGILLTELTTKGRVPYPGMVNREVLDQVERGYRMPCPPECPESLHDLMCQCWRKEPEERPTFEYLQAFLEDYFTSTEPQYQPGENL
Protocol: Baculovirus-produced recombinant purified his-tagged active against human Src and Abl were purchased from Upstate (Lake Placid, NY, USA).
Src activity was measured in a filter-binding assay using the Src Assay Kit (Upstate, Lake Placid, NY, USA), according to the manufacturer's protocol, using the specific Src peptide substrate [[…]] in the presence of 0.125 pmol of Src and 0.160 pmol of [γ-^32P]ATP. Abl activity was measured in a filter-binding assay using an Abl specific peptide substrate (Abtide, Upstate). Reaction conditions were (in a final volume of 10 µl): 25 mM Tris-HCl pH 7.5, 1 mM DTT, 0.012 µM [γ-^32P]ATP, 0.022 µM c-Abl. Reactions were incubated 10 min at 30°C.The samples (9 µl) were spotted on paper cellulose filters which were washed according to the manufacturer's protocol. Filter-bound radioactivity was measured by liquid scintillation with a Microbeta-Trilux apparatus (PerkinElmer, Waltham, MA, USA).
The ID50 were converted to Ki according to a competitive mechanism with respect to the substrate ATP. […] Since (i) the ATP concentration was limiting, i.e., [ATP], Km(ATP), and (ii) the enzyme concentration was not negligible with respect to the ATP concentration, the classical Cheng-Prusoff relationship was not applicable. Consequently, Ki values were calculated according to [drawing 3] (2) where S0 is the concentration of the competing substrate (ATP) and E0 is the concentration of the enzyme. Each experiment was done in triplicate and mean values were used for the interpolation. Curve fitting was performed with the program GraphPad Prism.

[8] = 24 h, read-out: Calculated IC50 after single treatment for 24 h
[9] = 96 h, read-out: Calculated IC50 after daily treatment for 96 h
[10] = MTS, 24 h, read-out: Calculated IC50 after single treatment for 24 h
[11] = Mus musculus, 24 h, read-out: Calculated IC50 after single treatment for 24 h
[12] = Mus musculus, 96 h, read-out: Calculated IC50 after daily treatment for 96 h

| SMILES | IC50 (A2C12; [8]) [µM] | IC50 (A2C12; [9]) [µM] | IC50 (BetaD5 [1]; [8]) [µM] | IC50 (BetaD5 [1]; [9]) [µM] | IC50 (GammaA3 [2]; [8]) [µM] | IC50 (GammaA3 [2]; [9]) [µM] | IC50 (GammaD12 [3]; [10]) [µM] | IC50 (A549; [8]) [µM] | IC50 (A549; [9]) [µM] | IC50 (CaCo2; [8]) [µM] | IC50 (CaCo2; [9]) [µM] | Cells in G1 phase (BetaD5 [4]) [%] | Cells in G2 phase (BetaD5 [4]) [%] | Cells in S phase (BetaD5 [4]) [%] | Cells in G1 phase (GammaA3 [5]) | Cells in G2 phase (GammaA3 [5]) [%] | Cells in S phase (GammaA3 [5]) [%] | Cells in G1 phase (GammaD12 [6]) [%] | Cells in G2 phase (GammaD12 [6]) [%] | Cells in S phase (GammaD12 [6]) [%] | also measured |
| --- | --- | --- | --- | --- | --- | --- | --- | --- | --- | --- | --- | --- | --- | --- | --- | --- | --- | --- | --- | --- | --- |
| CSc1nc(NCCc2ccc(Cl)cc2)c2cnn(CC(Cl)c3ccccc3)c2n1 (stereo not drawn) [Si57] | 24.8 ± 0.2 | 5.4 ± 0.3 | 19.6 ± 1.5 | 9.1 | 26.6 ± 4.2 | 5.8 ± 0.4 | 14.6 ± 0.7 | 43.4 ± 8 | 8.3 ± 0.4 | 77.1 ± 7.5 | 6.8 ± 1.5 | 52.5 | 32.3 | 15.4 | 59.6% | 18 | 22.4 | 33 | 6 | 61.1 | IC50 (GammaD12 [3]; MTS, 96 h, read-out: Calculated IC50 after daily treatment for 96 h): 4.8 ± 0.6 µM; IC50 (HepG2; [8]): 77.2 ± 7.5 µM; IC50 (HepG2; [9]): 25.5 ± 4.8 µM; hnRNP-K protein level [7]: remained equal |
| Clc1cccc(Nc2nc(SC3CCCC3)nc3c2cnn3CC(Cl)c2ccccc2)c1 (stereo not drawn) [Si135] | – | – | – | – | – | – | – | – | – | – | – | 73 | 22.3 | 4.7 | up to 75% | 14.9 | 10 | 35.5 | 12.5 | 51.9 | Inhibition of c-Src kinase activity (c-Src): no inhibition; IC50 (A2C12; [11]): 25.5 ± 3.8 µM; IC50 (A2C12; [12]): 4.1 ± 0.4 µM; IC50 (BetaD5 [1]; [11]): 13 ± 2.2 µM; IC50 (BetaD5 [1]; [12]): 3.6 ± 0.2 µM; IC50 (GammaA3 [2]; [11]): 10 ± 2.2 µM; IC50 (GammaA3 [2]; [12]): 3.8 ± 0.2 µM; IC50 (GammaD12 [3]; Mus musculus, MTS, 24 h, read-out: Calculated IC50 after single treatment for 24 h): 14.7 ± 0.6 µM; IC50 (GammaD12 [3]; Mus musculus, MTS, 96 h, read-out: Calculated IC50 after daily treatment for 96 h): 3.5 ± 0.2 µM; IC50 (A549; Homo sapiens, A549, 24 h, 24 h, read-out: Calculated IC50 after single treatment for 24 h): 26.1 ± 2.6 µM; IC50 (A549; Homo sapiens, A549, 96 h, 96 h, read-out: Calculated IC50 after daily treatment for 96 h): 2.7 µM; IC50 (CaCo2; Homo sapiens, Caco-2, 24 h, read-out: Calculated IC50 after single treatment for 24 h): 64.6 ± 10.3 µM; IC50 (CaCo2; Homo sapiens, Caco-2, 96 h, read-out: Calculated IC50 after daily treatment for 96 h): 2.1 ± 0.2 µM; IC50 (HepG2; Homo sapiens, 24 h, read-out: Calculated IC50 after single treatment for 24 h): 64.6 ± 10.3 µM; IC50 (HepG2; Homo sapiens, 96 h, read-out: Calculated IC50 after daily treatment for 96 h): 20.9 ± 1.8 µM; Cells in G1 phase (GammaA3 [5]; listed as Si 135): 75.1%; hnRNP-K protein level [7]: remained equal |
| Fc1ccccc1CNc1ncnc2c1cnn2CC(Cl)c1ccc(Br)cc1 (stereo not drawn) [Si162] | 17.6 ± 1.2 | 2.1 ± 0.2 | 8.3 ± 1.2 | 6.4 ± 0.5 | 13.1 ± 1.1 | 6.4 ± 0.4 | 11.6 ± 1.3 | 21.9 ± 2.7 | 5 | > 100 | 1.9 ± 0.2 | 22.8 | 42.8 | 34.5 | 40.3% | 31.5 | 28.1 | 24.1 | 12.4 | 63.5 | Ki (c-Src; isolated Src, calculated from ID50, ATP-competitive, E0 0.005, S0 0.012 µM): 0.042 µM; IC50 (GammaD12 [3]; 96 h, read-out: IC50 (MTS) after treatment for 96 h): 0.8 µM; IC50 (HepG2; [8]): 34.7 ± 3.4 µM; IC50 (HepG2; [9]): 14.5 µM; Repression of FAK protein ([7]; lung cancer cell lines): up to 50% |
